Source: PubChem BioAssay AID1259407 (Chemical Carcinogenesis Research Information System (CCRIS), 2018)
Activity calls are given as the source filed them. No rule for the calls is given here.

System: CCRIS mutagenicity, Ames/micronucleus/aberration tests
Assay: CCRIS mutagenicity studies
[1] = Test System: AMES SALMONELLA TYPHIMURIUM, Strain/Indicator: TA98, Metabolic Activation: HAMSTER, LIVER, S-9, AROCLOR 1254, Method: PREINCUBATION
[2] = Test System: AMES SALMONELLA TYPHIMURIUM, Strain/Indicator: TA98, Metabolic Activation: NONE, Method: PREINCUBATION
[3] = Test System: AMES SALMONELLA TYPHIMURIUM, Strain/Indicator: TA98, Metabolic Activation: RAT, LIVER, S-9, AROCLOR 1254, Method: PREINCUBATION
[4] = Test System: AMES SALMONELLA TYPHIMURIUM, Strain/Indicator: TA100, Metabolic Activation: HAMSTER, LIVER, S-9, AROCLOR 1254, Method: PREINCUBATION
[5] = Test System: AMES SALMONELLA TYPHIMURIUM, Strain/Indicator: TA100, Metabolic Activation: NONE, Method: PREINCUBATION
[6] = Test System: AMES SALMONELLA TYPHIMURIUM, Strain/Indicator: TA100, Metabolic Activation: RAT, LIVER, S-9, AROCLOR 1254, Method: PREINCUBATION
[7] = Test System: AMES SALMONELLA TYPHIMURIUM, Strain/Indicator: TA1535, Metabolic Activation: HAMSTER, LIVER, S-9, AROCLOR 1254, Method: PREINCUBATION
[8] = Test System: AMES SALMONELLA TYPHIMURIUM, Strain/Indicator: TA1535, Metabolic Activation: NONE, Method: PREINCUBATION
[9] = Test System: AMES SALMONELLA TYPHIMURIUM, Strain/Indicator: TA1535, Metabolic Activation: RAT, LIVER, S-9, AROCLOR 1254, Method: PREINCUBATION
[10] = Test System: AMES SALMONELLA TYPHIMURIUM, Strain/Indicator: TA100, Metabolic Activation: NONE, Method: STANDARD PLATE
[11] = Test System: AMES SALMONELLA TYPHIMURIUM, Strain/Indicator: TA98, Metabolic Activation: NONE, Method: STANDARD PLATE
[12] = Test System: AMES SALMONELLA TYPHIMURIUM, Strain/Indicator: TA98, Metabolic Activation: RAT, LIVER, S-9, AROCLOR 1254, Method: STANDARD PLATE
[13] = Test System: AMES SALMONELLA TYPHIMURIUM, Strain/Indicator: TA100, Metabolic Activation: RAT, LIVER, S-9, AROCLOR 1254, Method: STANDARD PLATE
[14] = Test System: AMES SALMONELLA TYPHIMURIUM, Strain/Indicator: TA1537, Metabolic Activation: NONE, Method: STANDARD PLATE
[15] = Test System: AMES SALMONELLA TYPHIMURIUM, Strain/Indicator: TA1537, Metabolic Activation: RAT, LIVER, S-9, AROCLOR 1254, Method: STANDARD PLATE

In the case of `O=[N+]([O-])c1ccc(Nc2ccc(Nc3ccccc3)c(S(=O)(=O)O)c2)c([N+](=O)[O-])c1`, the mutagenic call (Test System: AMES SALMONELLA TYPHIMURIUM, Strain/Indicator: TA97, Metabolic Activation: HAMSTER, LIVER, S-9, AROCLOR 1254, Method: PREINCUBATION) is reported as “active; positive”, the mutagenic call (Test System: AMES SALMONELLA TYPHIMURIUM, Strain/Indicator: TA97, Metabolic Activation: NONE, Method: PREINCUBATION) is reported as “active; positive” and the mutagenic call (Test System: AMES SALMONELLA TYPHIMURIUM, Strain/Indicator: TA97, Metabolic Activation: RAT, LIVER, S-9, AROCLOR 1254, Method: PREINCUBATION) is reported as “active; positive”. For the same compound, the mutagenic call [1] was “active; positive”, the mutagenic call [2] was “active; positive” and the mutagenic call [3] was “active; positive”. The mutagenic call [4] was “active; positive”, the mutagenic call [5] was “active; positive” and the mutagenic call [6] was “active; positive”. The mutagenic call [7] was “inactive; negative”, the mutagenic call [8] was “inactive; negative” and the mutagenic call [9] was “inactive; negative”.
`N#C/C(=C/C=C/c1ccccc1)c1ccc(F)cc1` was tested, and the mutagenic call (Test System: AMES SALMONELLA TYPHIMURIUM, Strain/Indicator: TA97A, Metabolic Activation: NONE, Method: STANDARD PLATE) was “active; positive” and the mutagenic call [10] was “inactive; negative”.
`O=P1(Oc2ccccc2)OCc2ccccc2O1` (centres undefined) was tested, and the mutagenic call [10] was “active; positive” and the mutagenic call (Test System: AMES SALMONELLA TYPHIMURIUM, Strain/Indicator: TA100, Metabolic Activation: RAT, LIVER, MICROSOMES, Method: STANDARD PLATE) was “active; positive”.
In the case of `O[C@@H]1[C@H]2O[C@H]2c2c(ccc3nc4ccc5ccccc5c4cc23)[C@H]1O`, the mutagenic call [11] is reported as “active; positive”, the mutagenic call (Test System: AMES SALMONELLA TYPHIMURIUM, Strain/Indicator: TA100, Metabolic Activation: GUINEA PIG, LIVER, S-9, 3-METHYLCHOLANTHRENE, Method: STANDARD PLATE) is reported as “active; positive” and the mutagenic call [10] is reported as “active; positive”. For the same compound, the mutagenic call (Test System: CHINESE HAMSTER V-79, Strain/Indicator: V-79/6-THIOGUANINE, Metabolic Activation: NONE) was “active; positive”.
With `O=[N+]([O-])c1ccc2[nH]c3ccc([N+](=O)[O-])cc3c2c1` the mutagenic call (Test System: AMES SALMONELLA TYPHIMURIUM, Strain/Indicator: TA98(NR), Metabolic Activation: NONE, Method: STANDARD PLATE) was “active; positive”, the mutagenic call (Test System: AMES SALMONELLA TYPHIMURIUM, Strain/Indicator: TA98(NR), Metabolic Activation: RAT, LIVER, S-9, AROCLOR 1254, Method: STANDARD PLATE) was “active; positive” and the mutagenic call [11] was “active; positive”. For the same compound, the mutagenic call [12] was “active; positive”.
For `CN(C)CCC=C1c2ccccc2CCc2ccccc21`, the mutagenic call [11] was “inactive; negative”, the mutagenic call [12] was “inactive; negative” and the mutagenic call [10] was “inactive; negative”. The mutagenic call [13] was “inactive; negative”, the mutagenic call (Test System: AMES SALMONELLA TYPHIMURIUM, Strain/Indicator: TA1535, Metabolic Activation: NONE, Method: STANDARD PLATE) was “inactive; negative” and the mutagenic call (Test System: AMES SALMONELLA TYPHIMURIUM, Strain/Indicator: TA1535, Metabolic Activation: RAT, LIVER, S-9, AROCLOR 1254, Method: STANDARD PLATE) was “inactive; negative”. For the same compound, the mutagenic call [14] was “inactive; negative” and the mutagenic call [15] was “inactive; negative”.
In the case of `C=C(C)C(=O)OCCOCCOCCOCCOC(=O)C(=C)C`, the mutagenic call (Test System: MOUSE LYMPHOMA, Strain/Indicator: L5178Y (TK+/TK-), Metabolic Activation: NONE, Method: SUSPENSION/PLATE) is reported as “active; positive”.
In the case of `O=[N+]([O-])c1ccc2c(c1)nc(/C=N/OCc1ccccc1[N+](=O)[O-])n2Cc1ccc(Cl)cc1Cl`, the mutagenic call [11] is reported as “active; positive”, the mutagenic call (Test System: AMES SALMONELLA TYPHIMURIUM, Strain/Indicator: TA98, Metabolic Activation: RAT, LIVER, S-9, PHENOBARBITAL AND BETA-NAPHTHOFLAVONE, Method: STANDARD PLATE) is reported as “active; positive” and the mutagenic call [10] is reported as “active; positive”. For the same compound, the mutagenic call (Test System: AMES SALMONELLA TYPHIMURIUM, Strain/Indicator: TA100, Metabolic Activation: RAT, LIVER, S-9, PHENOBARBITAL AND BETA-NAPHTHOFLAVONE, Method: STANDARD PLATE) was “active; positive”.
For `CN(CC(=O)NN)c1ccc2ccccc2c1`, the mutagenic call [11] was “inactive; negative”, the mutagenic call [12] was “inactive; negative” and the mutagenic call [10] was “inactive; negative”. The mutagenic call [13] was “inactive; negative”, the mutagenic call [14] was “inactive; negative” and the mutagenic call [15] was “inactive; negative”.
In the case of `C=C(C)[C@H]1CC=C(C)C(=O)C1`, the mutagenic call [1] is reported as “inactive; negative”, the mutagenic call [2] is reported as “inactive; negative” and the mutagenic call [3] is reported as “inactive; negative”. For the same compound, the mutagenic call [4] was “inactive; negative”, the mutagenic call [5] was “inactive; negative” and the mutagenic call [6] was “inactive; negative”. For the same compound, the mutagenic call [7] was “inactive; negative”, the mutagenic call [8] was “inactive; negative” and the mutagenic call [9] was “inactive; negative”. For the same compound, the mutagenic call (Test System: AMES SALMONELLA TYPHIMURIUM, Strain/Indicator: TA1537, Metabolic Activation: HAMSTER, LIVER, S-9, AROCLOR 1254, Method: PREINCUBATION) was “inactive; negative”, the mutagenic call (Test System: AMES SALMONELLA TYPHIMURIUM, Strain/Indicator: TA1537, Metabolic Activation: NONE, Method: PREINCUBATION) was “inactive; negative” and the mutagenic call (Test System: AMES SALMONELLA TYPHIMURIUM, Strain/Indicator: TA1537, Metabolic Activation: RAT, LIVER, S-9, AROCLOR 1254, Method: PREINCUBATION) was “inactive; negative”.
For `COc1cc(-c2ccc(N/N=C3\C=Cc4c(S(=O)(=O)O)cc(S(=O)(=O)O)c(N)c4C3=O)c(OC)c2)ccc1N/N=C1/C=Cc2c(S(=O)(=O)O)cc(S(=O)(=O)O)c(N)c2C1=O`, the mutagenic call (Test System: AMES SALMONELLA TYPHIMURIUM, Strain/Indicator: TA98, Metabolic Activation: HAMSTER, LIVER, S-9, Method: PREINCUBATION (PRIVAL METHOD)) was “active; positive”, the mutagenic call (Test System: Ames Salmonella typhimurium, Strain/Indicator: TA98, Metabolic Activation: Rat, Liver, S-9, Sodium phenobarbitone, Method: Preincubation) was “inactive; negative, test conducted under both aerobic and anaerobic conditions” and the mutagenic call (Test System: Ames Salmonella typhimurium, Strain/Indicator: TA1538, Metabolic Activation: Rat, Liver, S-9, Sodium phenobarbitone, Method: Preincubation) was “inactive; negative, test conducted under both aerobic and anaerobic conditions”.
`CC(C)(C)NCC(O)COc1cccc2c1CCCC2=O` (centres undefined) was tested, and the mutagenic call [11] was “inactive; negative”, the mutagenic call [12] was “inactive; negative” and the mutagenic call [10] was “inactive; negative”. The mutagenic call [13] was “inactive; negative”.
`CC(=O)O[C@@H]1[C@@H](O)[C@H]2O[C@@H]3C=C(C)C(=O)[C@@H](O)[C@]3(CO)[C@]1(C)[C@]21CO1` was tested, and the mutagenic call [11] was “inactive; negative”, the mutagenic call (Test System: AMES SALMONELLA TYPHIMURIUM, Strain/Indicator: TA98, Metabolic Activation: RAT LIVER S-9, DELOREM 103, Method: STANDARD PLATE) was “inactive; negative” and the mutagenic call [5] was “inactive; negative”. The mutagenic call [10] was “inactive; negative”, the mutagenic call (Test System: AMES SALMONELLA TYPHIMURIUM, Strain/Indicator: TA100, Metabolic Activation: RAT LIVER S-9, DELOREM 103, Method: STANDARD PLATE) was “inactive; negative” and the mutagenic call (Test System: AMES SALMONELLA TYPHIMURIUM, Strain/Indicator: TA100, Metabolic Activation: RAT, LIVER, S-9, PHENOBARBITAL, Method: PREINCUBATION) was “inactive; negative”.
In the case of `C=C1[C@H](O)[C@@]23CC[C@H]4[C@@](C)(CCC[C@@]4(C)C(=O)O)[C@@H]2CC[C@]1(O)C3`, the mutagenic call (Test System: AMES SALMONELLA TYPHIMURIUM, Strain/Indicator: TM677, Metabolic Activation: RAT, LIVER, S-9, AROCLOR 1254, Method: PREINCUBATION) is reported as “inactive; negative”.
